The values that follow come from patent publication US9315491B2 (DEVELOPMENT CENTER FOR BIOTECHNOLOGY, priority 2009, dated 2016).

The assay concerns the target recombinant mTOR (Homo sapiens (Human), UniProt P42345). Nature of the assay: mTOR kinase assay (33P incorporation into 4EBP1). As to conditions: compound at 10 μM, 10 μM ATP. Type of assay: biochemical. As to the method:
The activity of the compound against mTOR was examined by measuring the incorporation of ^33P from [γ-^33P]-ATP into 4EBP1. His-tagged, recombinant human 4EBP1 was expressed in E. coli, purified by nickel-nitrilotriacetic acid (Ni-NTA) resins, and stored at −80° C. Phosphorylation of 4EBP1 by mTOR was assayed in the presence or absence of the compound and performed in a final volume of 25 μl reaction buffer containing 300 ng 4EBP1, 50 ng recombinant mTOR (Invitrogen), 50 mM HEPES (pH 7.5), 1 mM EGTA, 0.01% Polysorbate 20, 10 mM MnCl2, 2.5 mM DTT, 10 μM ATP, and 0.5 μCi [γ-33P]-ATP (PerkinElmir) for 30 min at 30° C. The reactions were terminated by adding 3% phosphoric acid. The ^33P labeled 4EBP1 was transferred onto UniFilter-96 GF/B plate (PerkinElmer) and quantified by Top Count Microplate Scintillation Counter (PerkinElmer). For primary screening of kinase activity inhibition, each test compound was evaluated at […] in duplicate. […] The IC50 values of the compounds were determined after carrying out assays at eight serially diluted concentrations of each compound in duplicate. The results were analyzed using linear regression software (GraphPad Prism 5; GraphPad Software Inc.).
IC50 value is defined as the concentration of the test compound which achieves a half-maximal inhibition of the kinase activity.

Chain of recombinant mTOR (P42345 1360-2549): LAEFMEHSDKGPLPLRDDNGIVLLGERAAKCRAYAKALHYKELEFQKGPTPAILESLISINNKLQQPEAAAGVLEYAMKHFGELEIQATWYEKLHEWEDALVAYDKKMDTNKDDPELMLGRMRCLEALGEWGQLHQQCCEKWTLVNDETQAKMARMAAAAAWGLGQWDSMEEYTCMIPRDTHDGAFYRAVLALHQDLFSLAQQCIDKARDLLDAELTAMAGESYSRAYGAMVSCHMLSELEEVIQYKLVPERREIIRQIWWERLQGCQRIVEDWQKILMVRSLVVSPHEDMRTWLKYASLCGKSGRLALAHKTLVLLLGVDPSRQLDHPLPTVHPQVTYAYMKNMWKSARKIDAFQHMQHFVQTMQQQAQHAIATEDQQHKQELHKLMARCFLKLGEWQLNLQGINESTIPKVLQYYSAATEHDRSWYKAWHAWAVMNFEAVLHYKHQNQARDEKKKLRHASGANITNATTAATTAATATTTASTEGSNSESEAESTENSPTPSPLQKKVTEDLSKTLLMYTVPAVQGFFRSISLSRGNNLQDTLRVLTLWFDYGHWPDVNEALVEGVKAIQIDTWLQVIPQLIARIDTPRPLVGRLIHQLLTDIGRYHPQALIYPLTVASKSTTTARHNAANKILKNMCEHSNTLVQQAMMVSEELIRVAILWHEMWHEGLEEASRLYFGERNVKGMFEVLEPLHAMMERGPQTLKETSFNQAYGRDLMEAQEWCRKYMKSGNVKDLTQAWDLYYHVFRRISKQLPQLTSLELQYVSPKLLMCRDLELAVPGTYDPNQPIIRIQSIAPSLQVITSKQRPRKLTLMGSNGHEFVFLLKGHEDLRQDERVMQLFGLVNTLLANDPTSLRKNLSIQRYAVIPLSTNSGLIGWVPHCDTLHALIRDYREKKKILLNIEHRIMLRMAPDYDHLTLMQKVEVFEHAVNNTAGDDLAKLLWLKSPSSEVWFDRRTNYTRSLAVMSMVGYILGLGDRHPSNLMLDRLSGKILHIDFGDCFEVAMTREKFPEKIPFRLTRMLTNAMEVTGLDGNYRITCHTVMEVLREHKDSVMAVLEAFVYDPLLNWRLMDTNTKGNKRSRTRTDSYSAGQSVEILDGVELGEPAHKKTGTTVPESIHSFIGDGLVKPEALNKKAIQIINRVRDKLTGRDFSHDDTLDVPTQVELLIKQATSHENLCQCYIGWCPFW

For `CCOc1cnc(-c2ccc(NC(=O)Nc3ccc(C(N)=O)cc3)cc2)nc1-c1ccncc1` [MTR-0400, 4-{3-[4-(5-Ethoxy-4-pyridin-4-yl-pyrimidin-2-yl)-phenyl]-ureido}-benzamide], the inhibition at 10 µM was 85%.
Under `CSc1c(Cl)nc(-c2ccc(NC(=O)NC(C)C)cc2)nc1N1CCOCC1` [MTR-0306, 1-[4-(4-Chloro-5-methylsulfanyl-6-morpholin-4-yl-pyrimidin-2-yl)-phenyl]-3-isopropyl-urea] stands 90%; under `CCOC(=O)c1nc(-c2ccc(NC(=O)Nc3cccc(NC(=O)C(F)(F)F)c3)cc2)nc(N2CCOCC2)c1OCC` [MTR-0252, 5-Ethoxy-6-morpholin-4-yl-2-(4-{3-[3-(2,2,2-trifluoro-acetylamino)-phenyl]-ureido}-phenyl)-pyrimidine-4-carboxylic acid ethyl ester], 82%.
In the case of `CSc1c(Cl)nc(-c2ccc(NC(=O)Nc3ccc(N4CCOCC4)cn3)cc2)nc1N1CCOCC1` [MTR-0328, 1-[4-(4-Chloro-5-methylsulfanyl-6-morpholin-4-yl-pyrimidin-2-yl)-phenyl]-3-(5-morpholin-4-yl-pyridin-2-yl)-urea], the inhibition at 10 µM worked out at 85%.
Under `CCOC(=O)c1ccc(NC(=O)Nc2ccc(-c3nc(Cl)c(SC)c(N4CCOCC4)n3)cc2)cc1` [MTR-0212, 4-{3-[4-(4-Chloro-5-methylsulfanyl-6-morpholin-4-yl-pyrimidin-2-yl)-phenyl]-ureido}-benzoic acid ethyl ester] stands 85%; under `CCOc1c(C(=O)N2CCN(C)CC2)nc(-c2ccc(NC(=O)Nc3ccccc3)cc2)nc1N1CCOCC1` [MTR-0186, 1-{4-[5-Ethoxy-4-(4-methyl-piperazine-1-carbonyl)-6-morpholin-4-yl-pyrimidin-2-yl]-phenyl}-3-phenyl-urea], 96%.
Then `CCOC(=O)c1ccc(NC(=O)Nc2ccc(-c3nc(C(=O)OCC)c(OCC)c(N4CCOCC4)n3)cc2)cc1` [MTR-0362, 5-Ethoxy-2-{4-[3-(4-ethoxycarbonyl-phenyl)-ureido]-phenyl}-6-morpholin-4-yl-pyrimidine-4-carboxylic acid ethyl ester], with 84%.
Then `CCOC(=O)c1nc(-c2ccc(NC(=O)Nc3ccc(C(N)=O)cc3)c(F)c2)nc(N2CCOCC2)c1OCC` [MTR-0344, 2-{4-[3-(4-Carbamoyl-phenyl)-ureido]-3-fluoro-phenyl}-5-ethoxy-6-morpholin-4-yl-pyrimidine-4-carboxylic acid ethyl ester], with 92%; and `CSc1c(Cl)nc(-c2ccc(Nc3nc4ccccc4[nH]3)cc2)nc1N1CCOCC1` [MTR-0305, (1H-Benzoimidazol-2-yl)-[4-(4-chloro-5-methylsulfanyl-6-morpholin-4-yl-pyrimidin-2-yl)-phenyl]-amine], with 82%.
With `CCOC(=O)c1nc(-c2ccc(NC(=O)Nc3ccc(N4CCN(S(C)(=O)=O)CC4)cc3)cc2)nc(N2CCOCC2)c1OCC` [MTR-0419, 5-Ethoxy-2-(4-{3-[4-(4-methanesulfonyl-piperazin-1-yl)-phenyl]-ureido}-phenyl)-6-morpholin-4-yl-pyrimidine-4-carboxylic acid ethyl ester], the inhibition at 10 µM turned out to be 82%.
Under `CCOc1c(C(=O)N2CCCC2)nc(-c2ccc(NC(=O)Nc3ccccc3)cc2)nc1N1CCOCC1` [MTR-0141, 1-{4-[5-Ethoxy-4-morpholin-4-yl-6-(pyrrolidine-1-carbonyl)-pyrimidin-2-yl]-phenyl}-3-phenyl-urea] stands 96%.
Under `COc1cnc(-c2ccc(NC(=O)Nc3ccc(N4CCN(C)CC4)cn3)cc2)nc1N1CCOCC1` [MTR-0334, 1-[4-(5-Methoxy-4-morpholin-4-yl-pyrimidin-2-yl)-phenyl]-3-[5-(4-methyl-piperazin-1-yl)-pyridin-2-yl]-urea] stands 93%; under `CCOc1c(CN2CCN(C)CC2)nc(-c2ccc(NC(=O)Nc3ccccc3)cc2)nc1N1CCOCC1` [MTR-0172, 1-{4-[5-Ethoxy-4-(4-methyl-piperazin-1-ylmethyl)-6-morpholin-4-yl-pyrimidin-2-yl]-phenyl}-3-phenyl-urea], 86%; under `CCNC(=O)Nc1ccc(-c2ncc(OC)c(N3CCOCC3)n2)cc1` [MTR-0129, 1-Ethyl-3-[4-(5-methoxy-4-morpholin-4-yl-pyrimidin-2-yl)-phenyl]-urea], 96%.
In the case of `CCOC(=O)c1nc(-c2ccc(NC(=O)Nc3ccc4[nH]c(=O)oc4c3)cc2)nc(N2CCOCC2)c1OCC` [MTR-0423, 5-Ethoxy-6-morpholin-4-yl-2-{4-[3-(2-oxo-2,3-dihydro-benzooxazol-6-yl)-ureido]-phenyl}-pyrimidine-4-carboxylic acid ethyl ester], the inhibition at 10 µM came out at 95%.
Then `CSc1c(Cl)nc(-c2ccc(NC(=O)Nc3nccs3)cc2)nc1N1CCOCC1` [MTR-0200, 1-[4-(4-Chloro-5-methylsulfanyl-6-morpholin-4-yl-pyrimidin-2-yl)-phenyl]-3-thiazol-2-yl-urea], with 84%.
Then `CCOc1c(C(=O)O)nc(-c2ccc(NC(=O)Nc3cccnc3)cc2)nc1N1CCOCC1` [MTR-0245, 5-Ethoxy-6-morpholin-4-yl-2-[4-(3-pyridin-3-yl-ureido)-phenyl]-pyrimidine-4-carboxylic acid], with 94%; and `CCOc1c(-c2cccnc2)nc(-c2ccc(NC(=O)Nc3ccc(N4CCOCC4=O)cc3)cc2)nc1N1CCOCC1` [MTR-0496, 1-[4-(5-Ethoxy-4-morpholin-4-yl-6-pyridin-3-yl-pyrimidin-2-yl)-phenyl]-3-[4-(3-oxo-morpholin-4-yl)-phenyl]-urea], with 95%; and `COc1c(C(=O)O)nc(-c2ccc(NC(=O)Nc3ccccc3)cc2)nc1N1CCOCC1` [MTR-0183, 5-Methoxy-6-morpholin-4-yl-2-[4-(3-phenyl-ureido)-phenyl]-pyrimidine-4-carboxylic acid], with 95%.
Regarding `CCOc1c(-c2cccnc2)nc(-c2ccc(NC(=O)Nc3cccnc3)cc2)nc1N1CCOCC1` [MTR-0491, 1-[4-(5-Ethoxy-4-morpholin-4-yl-6-pyridin-3-yl-pyrimidin-2-yl)-phenyl]-3-pyridin-3-yl-urea], the inhibition at 10 µM came out at 100%.
Then `CSc1c(Cl)nc(-c2ccc(NC(=O)Nc3ccc(N4CCOCC4=O)cc3)cc2)nc1N1CCOCC1` [MTR-0213, 1-[4-(4-Chloro-5-methylsulfanyl-6-morpholin-4-yl-pyrimidin-2-yl)-phenyl]-3-[4-(3-oxo-morpholin-4-yl)-phenyl]-urea], with 84%; and `CCOC(=O)c1nc(-c2cnc(NC(=O)Nc3ccc(N4CCOCC4=O)cc3)nc2)nc(N2CCOCC2)c1OCC` [MTR-0403, 5-Ethoxy-6-morpholin-4-yl-2′-{3-[4-(3-oxo-morpholin-4-yl)-phenyl]-ureido}-[2,5′]bipyrimidinyl-4-carboxylic acid ethyl ester], with 88%.
Under `CSc1c(Cl)nc(-c2ccc(NC(=O)Nc3ccc(N)cc3)cc2)nc1N1CCOCC1` [MTR-0329, 1-(4-Amino-phenyl)-3-[4-(4-chloro-5-methylsulfanyl-6-morpholin-4-yl-pyrimidin-2-yl)-phenyl]-urea] stands 97%.
